Source: patent publication US10391101B2, “Derivatives of 7-fluoro-8-chloro-5H-dibenzo [B,E,] [1,4] diazepine and use thereof” (VALENTEK LLC, priority 2014, dated 2019)

Assays:
[1] = Sub-chronic toxicity, morphological parameters of blood (neutrophil kinetics); type: in vivo; details: rats, intragastric 5 mg/kg daily for 28 days
Text: The positive effect of the introduction of fluorine has been observed in pre-clinical studies of sub-chronic toxicity. […]. Increase in the number of neutrophils has been observed among rats after administration of aminoglutethimide, which also involves a high risk of agranulocytosis (Ng, W. et. al., Chem Res Toxicol, 2013, 26, 1272-81). Thus changes in the kinetics of neutrophils after intake of the medication can serve as a biomarker to predict the risk of agranulocytosis.
The neutrophil kinetics has been studied within comparative tests of sub-chronic toxicity. Studies have been conducted using rats upon intragastric administration of the substance at a dose of 5 mg/kg. The test substances were administered daily for 28 days. Each experimental group was composed of 10 animals of each sex.

[2] = Leucht et al., Lancet 2013; cited from earlier work
[3] = cited from earlier work
[4] = 5-oxytriptophan hyperkinesia (head twitches); type: in vivo; details: mice, intragastric 1.0-10.0 mg/kg, 5-oxytriptophan 300 mg/kg i.p.
Description: It is known that the precursor of serotonin (5-oxytriptophan, 5-OT) causes a specific hyperkinesia in mice in the form of head-twitching with average duration of 30-60 minutes, which is explained by the activation of serotonergic system of the CNS. […] Each experimental group included 10 male mice weighing 20-22 g. The test substances were administered intragastrically at 1.0, 2.5, 5.0 and 10.0 mg/kg 30 minutes before the intraperitoneal administration of 5-oxytriptophan at a dose of 300 mg/kg. We counted the number of head twitches per 1 minute at intervals of 10 minutes during 60 minutes.

[5] = Sedation study, total distance traveled; details: CF-1 mice
[6] = target: H4 receptor (Homo sapiens, UniProt Q9H3N8); experiment: H4 histamine receptor functional experiment, agonism set-up (cell conductibility); type: cell-based
Description: (§1) The functional activity of compounds on the H4 receptor was determined according to the change in the cell conductibility induced by redistribution of intracellular calcium. The activity for H1 receptor was determined according to the fluorescence of Fluo-4 NW indicator introduced into cells induced by the change in Ca2+ ion concentration in the cytosol.
(§2) Functional experiments were performed in the set-up of agonism and antagonism. In the set-up of agonism the test substance was added directly to the cells expressing the receptor and was determined as the dependence of the response intensity on the substance concentration. Concentration at which the half-peak response (EC50) could be reached served as a measure of activity of agonists.
(§3) In the set-up of antagonism, the ability of test substances to block the action of agonists was assessed. For this purpose, cells were incubated with the test substances, then the reference agonists were added in the system and the functional response was determined.

[7] = target: H1 receptor (Homo sapiens, UniProt P35367); experiment: H1 histamine receptor functional experiment, antagonism set-up (Fluo-4 NW Ca2+ fluorescence); type: cell-based
Description: as §1, §2, §3

[8] = target: T1, D4 dopamine receptors (Homo sapiens, UniProt P21917); experiment: D4 dopamine receptor antagonism, Kb from IC50 (cAMP level); type: cell-based; details: for Kb: determined by IC50 values in the set-up of antagonism; for Therapeutic window (Kb, D2/Kb, D4): ratio of the applicant's Kb values
T1 sequence (P21917 1-419): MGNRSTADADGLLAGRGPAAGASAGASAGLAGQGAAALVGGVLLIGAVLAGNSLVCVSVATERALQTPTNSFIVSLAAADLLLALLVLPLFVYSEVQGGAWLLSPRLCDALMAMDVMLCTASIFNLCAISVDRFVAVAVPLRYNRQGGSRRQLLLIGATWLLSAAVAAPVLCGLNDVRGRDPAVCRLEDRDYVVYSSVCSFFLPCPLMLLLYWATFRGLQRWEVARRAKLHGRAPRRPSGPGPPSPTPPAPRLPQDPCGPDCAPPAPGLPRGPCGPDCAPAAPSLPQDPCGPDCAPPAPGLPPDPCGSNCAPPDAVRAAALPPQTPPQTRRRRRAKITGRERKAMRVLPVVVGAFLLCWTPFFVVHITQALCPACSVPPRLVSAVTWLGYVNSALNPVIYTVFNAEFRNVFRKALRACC
Description: (§4) The response on cells expressing D2 receptors was determined according to the change in the cell conductibility induced by redistribution of intracellular calcium. For D4 receptor the level of second messenger—cAMP was taken as the criterion.

[9] = target: D2 dopamine receptors (Homo sapiens, UniProt P14416); experiment: cell-based; details: determined by IC50 values in the set-up of antagonism
Description: as §4

[10] = target: T2, M4 muscarinic receptor (Homo sapiens, UniProt P08173); experiment: cell-based
T2 sequence (P08173 1-479): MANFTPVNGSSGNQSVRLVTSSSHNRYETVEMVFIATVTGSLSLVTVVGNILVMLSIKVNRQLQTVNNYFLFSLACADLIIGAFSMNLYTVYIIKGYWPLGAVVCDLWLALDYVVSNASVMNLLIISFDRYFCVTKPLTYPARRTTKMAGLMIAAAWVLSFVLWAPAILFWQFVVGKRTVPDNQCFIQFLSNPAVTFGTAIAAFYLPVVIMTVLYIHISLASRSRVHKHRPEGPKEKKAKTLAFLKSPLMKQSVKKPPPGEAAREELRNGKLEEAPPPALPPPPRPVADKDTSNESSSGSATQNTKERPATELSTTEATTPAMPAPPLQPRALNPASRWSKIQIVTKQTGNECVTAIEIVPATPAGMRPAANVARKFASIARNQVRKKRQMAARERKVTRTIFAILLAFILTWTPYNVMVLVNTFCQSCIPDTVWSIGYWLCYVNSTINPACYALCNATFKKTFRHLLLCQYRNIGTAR
Description: as §2, §3
The curves of dependence of functional response on the concentration of compounds for the receptor were made; the level of second messenger—cAMP determined according to the fluorescence after the lysis of cell expressing the receptor was taken as a criterion.

[11] = target: T3, M1 receptors (Homo sapiens, UniProt P11229); experiment: M1 receptor activation functional study (Fluo-4 NW Ca2+ fluorescence); type: cell-based; details: concentration-response curves, FIG. 2
T3 sequence (P11229 1-460): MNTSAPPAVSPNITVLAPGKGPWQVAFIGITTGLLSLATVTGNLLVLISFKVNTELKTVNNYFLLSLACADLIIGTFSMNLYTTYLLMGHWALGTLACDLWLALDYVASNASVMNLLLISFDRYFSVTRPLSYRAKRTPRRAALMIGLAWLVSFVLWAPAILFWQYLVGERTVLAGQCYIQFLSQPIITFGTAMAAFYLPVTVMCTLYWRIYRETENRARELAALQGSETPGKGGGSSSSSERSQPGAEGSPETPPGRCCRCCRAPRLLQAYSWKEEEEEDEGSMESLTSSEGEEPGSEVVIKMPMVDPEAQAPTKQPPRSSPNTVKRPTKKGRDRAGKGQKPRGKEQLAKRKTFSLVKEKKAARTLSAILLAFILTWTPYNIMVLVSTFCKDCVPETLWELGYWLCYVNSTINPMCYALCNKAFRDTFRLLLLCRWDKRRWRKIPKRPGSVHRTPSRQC
Description: The activity was determined according to the fluorescence of Fluo-4 NW indicator introduced into cells induced by the change in Ca2+ ion concentration in the cytosol.

[12] = Metabolism and distribution of fluoroclozapine in tissues; details: rats, single oral fluoroclozapine 10 mg/kg
[13] = tested on: family of adrenergic receptors; experiment: Panel of G-protein-coupled receptors, adrenergic receptors; details: GPCR panel
Text: In conjunction with the results of preliminary toxicological studies, the data indicates a reduction in the risk of autonomic dysfunctions, such as tachysystole, orthostatism, accommodation disorder, dysfunction of gastrointestinal tract and urination, weight gain, lack of coordination of muscle movements.

Chain of H4 receptor (Q9H3N8 whole entry): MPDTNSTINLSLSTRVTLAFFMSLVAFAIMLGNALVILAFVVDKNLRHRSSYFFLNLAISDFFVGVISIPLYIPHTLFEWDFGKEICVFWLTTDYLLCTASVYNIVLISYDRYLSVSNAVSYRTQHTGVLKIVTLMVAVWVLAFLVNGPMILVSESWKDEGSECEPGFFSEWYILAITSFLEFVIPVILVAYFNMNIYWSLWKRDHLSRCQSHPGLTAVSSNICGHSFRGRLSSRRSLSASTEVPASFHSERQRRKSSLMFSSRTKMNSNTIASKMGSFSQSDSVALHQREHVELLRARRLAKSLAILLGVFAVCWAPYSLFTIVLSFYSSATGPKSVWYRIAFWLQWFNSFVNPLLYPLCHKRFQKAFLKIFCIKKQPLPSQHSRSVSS
Chain of H1 receptor (P35367 whole entry): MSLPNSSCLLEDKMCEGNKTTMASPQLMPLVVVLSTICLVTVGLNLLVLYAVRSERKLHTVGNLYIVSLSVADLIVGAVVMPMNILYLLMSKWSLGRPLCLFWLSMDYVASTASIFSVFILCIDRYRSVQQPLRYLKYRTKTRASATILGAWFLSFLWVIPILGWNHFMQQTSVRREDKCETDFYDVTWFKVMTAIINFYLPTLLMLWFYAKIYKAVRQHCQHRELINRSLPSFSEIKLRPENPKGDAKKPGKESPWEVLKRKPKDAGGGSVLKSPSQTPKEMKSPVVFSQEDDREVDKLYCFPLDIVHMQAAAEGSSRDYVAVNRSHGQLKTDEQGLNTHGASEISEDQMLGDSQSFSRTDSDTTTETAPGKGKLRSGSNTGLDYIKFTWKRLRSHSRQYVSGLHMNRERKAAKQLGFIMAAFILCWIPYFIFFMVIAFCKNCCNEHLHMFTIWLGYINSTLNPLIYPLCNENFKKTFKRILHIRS
Chain of D2 dopamine receptors (P14416 whole entry): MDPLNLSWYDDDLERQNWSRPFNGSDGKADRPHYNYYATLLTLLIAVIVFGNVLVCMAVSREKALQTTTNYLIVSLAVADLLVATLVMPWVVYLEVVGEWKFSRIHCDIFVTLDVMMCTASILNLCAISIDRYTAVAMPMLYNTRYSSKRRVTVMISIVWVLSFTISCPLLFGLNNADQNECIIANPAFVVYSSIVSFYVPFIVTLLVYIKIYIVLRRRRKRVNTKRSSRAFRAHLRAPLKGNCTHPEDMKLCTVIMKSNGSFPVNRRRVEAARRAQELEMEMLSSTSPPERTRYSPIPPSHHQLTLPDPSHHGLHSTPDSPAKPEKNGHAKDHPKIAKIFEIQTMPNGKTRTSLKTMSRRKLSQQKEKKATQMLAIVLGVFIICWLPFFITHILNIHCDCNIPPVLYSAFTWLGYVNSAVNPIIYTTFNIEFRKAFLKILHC

Row | Structure (SMILES) | Basophils [1] [%] | ESR [1] [mm/h] | Eosinophils [1] [%] | Hemoglobin [1] [g/L] | Ht [1] [%] | Lymphocytes [1] [%] | MCH [1] [pg] | MCHC [1] [g/L] | MCV [1] [fL] | Metamyelocytes [1] [%] | Monocytes [1] [%] | Myelocytes [1] [%] | Number of circulating neutrophils in peripheral blood versus control group [1] | PLT count [1] | Plasma cells [1] [%] | RBC count [1] | Rt [1] | Segmented neutrophils [1] [%] | Stab neutrophiles [1] [%] | WBC count [1] | further results
1 | CN1CCN(C2=Nc3cc(Cl)ccc3Nc3ccccc32)CC1 [Clozapine, reference compound] | 0.6 ± 0.3 | 3.8 ± 0.4 | 1.0 ± 0.5 | 154.6 ± 1.9 | 43.3 ± 0.5 | 66.6 ± 2.8 | 18.4 ± 0.1 | 357.4 ± 1.9 | 51.6 ± 0.2 | 0.0 ± 0.0 | 6.4 ± 0.9 | 0.0 ± 0.0 | significant increase in the number of circulating neutrophils | 617.6 ± 43.2 10^9/l | 0.0 ± 0.0 | 8.39 ± 0.06 10^12/l | 80.8 ± 4.1 10^9/l | 21.2 ± 2.0 | 4.6 ± 0.7 | 11.6 ± 1.1 10^9/l | Increase in the risk of sedation [2]: 8.8 times; Patients resistant to typical neuroleptics in whom positive symptoms are weakened ([3]; human, in vivo): 30-60%; Patients with treatment-resistant schizophrenia whose condition improves ([3]; long-term use): 60%; Inhibition of twitches induced by 5-OT [4]: most evident inhibition of twitches; Sedation: total distance traveled by animals ([5]; oral 1, 5 and 10 mg/kg): significantly reduced
2 | OCCOCCN1CCN(C2=Nc3ccccc3Sc3ccccc32)CC1 [Quetiapine, quetiapine] |  |  |  |  |  |  |  |  |  |  |  |  |  |  |  |  |  |  |  |  | Increase in the risk of sedation [2]: 3.7 times
3 | Clc1ccc2c(c1)N=C(N1CCNCC1)c1ccccc1N2 [Desmethylclozapine, N-desmethylclozapine, reference compound] |  |  |  |  |  |  |  |  |  |  |  |  |  |  |  |  |  |  |  |  | EC50 [6]: 2100 nM; IC50 [7]: 15 nM; Kb [8]: 190 nM; Therapeutic window (Kb, D2/Kb, D4) [8]: 0.27; Kb [9]: 52 nM
4 | Fc1cc2c(cc1Cl)N=C(N1CCNCC1)c1ccccc1N2 [Desmethylfluoroclozapine, 11-(piperazine-1-yl)-7-fluoro-8-chloro-5H-dibenzo[b,e][1,4]diazepine] | 0.6 ± 0.3 | 4.2 ± 0.4 | 1.0 ± 0.5 | 153.4 ± 2.4 | 42.5 ± 0.5 | 66.6 ± 2.8 | 18.4 ± 0.1 | 360.8 ± 2.2 | 50.9 ± 0.2 | 0.0 ± 0.0 | 6.2 ± 1.0 | 0.0 ± 0.0 | did not differ so much different from that of the control group | 653.4 ± 29.8 10^9/l | 0.0 ± 0.0 | 8.35 ± 0.07 10^12/l | 75.6 ± 3.1 10^9/l | 21.4 ± 1.7 | 4.2 ± 0.4 | 11.7 ± 0.9 10^9/l | Activating concentration relative to that of norclozapine ([10]; M4, agonism): 30 times; EC50 ([10]; M4, agonism set-up): 3.2 µM; IC50 ([10]; M4, antagonism set-up): > 10 µM; Functional response on M1 receptor (agonism) [11]: is an agonist and causes a significant response in the therapeutic concentration range; EC50 [6]: 2000 nM; IC50 [7]: 61 nM; Kb [8]: 350 nM; Therapeutic window (Kb, D2/Kb, D4) [8]: 1.6; Sedation: decrease in motor activity ([5]; oral, dose of 10 mg/kg): negligible decrease in motor activity; Concentrations of parent and metabolite in the brain [12]: consistent; Activity in relation to adrenergic receptors [13]: relatively weak activity; Kb [9]: 550 nM
